# According to patent US9283235B2, “Intermittent lowering of cortisol as treatment of clinical conditions associated with abnormal concentrations of cortisol in animals” (Stegram Pharmaceuticals Limited, priority 2001, dated 2016):
# Key:
# canine PDH = conditions: of 10 dogs studied; cited from earlier work
# [1] = tested on: dogs with hyperadrenocorticism (HAC); assay: Prospective study of trilostane in dogs with spontaneous hyperadrenocorticism (HAC): clinical signs and survival; assay type: in vivo, dog; conditions: given to 4 dogs for three to four days before enrolment
# Description: Animals were entered into a prospective study and all animals required clinical and laboratory signs of hyperadrenocorticism as well as a final diagnosis of this disease. Data collected from each case included a clinical-historicy and physical examination, full blood count (CBC), serum biochemical profile, urinalysis and abdominal ultrasound. An ACTH-stimulation test was performed in all dogs. […] Dogs that had been treated for HAC other medication needed to be off these drugs for at least 10 days. Dogs with renal or hepatic insufficiency and dogs that received steroids were not included in the study.
# Dogs with pituitary dependant hyperadrenocorticism or adrenal tumour which was unresectable or the owners were unwilling to have surgery performed, respectively, were treated with trilostane. The initial dose for dogs[…] was 30 mg once daily, dogs between 5 and 15 kg received 60 mg once daily and dogs>15 kg received 120 mg once daily. Dosages were adjusted based on clinical signs, blood biochemical parameters and an ACTH stimulation test.
# Follow-up re-examinations took place after 10 days, 4 weeks, 3 mouths, 6 months and then every 6 months or within 4 weeks of adjusting the dosage. At these points, owners were carefully questioned about their perception of the dogs general well being, dissolution of clinical signs and potential side effects and a physical examination was performed. A full biochemical profile and an ACTH stimulation test were carried out. Further tests such as urinanalysis, urine culture, thoracic radiographs, etc. were done if deemed necessary. If the clinical sips of hyperadrenocorticism (polyuria/polydipsia, polyphagia, exercise intolerance, etc.) were still present and if the post-ACTH cortisol concentration remained above 220 nmol/l, trilostane was given twice daily at the same dosage.
SMILES,Dogs with improvement of clinical signs (canine PDH),Clinical effect [1]
C#CCN(C)[C@H](C)Cc1ccccc1 [L-Deprenyl],2 dogs,–
Clc1ccc(C(c2ccccc2Cl)C(Cl)Cl)cc1 (centres unmarked) [Lysodren],–,did not show any clinical effect
